This is an account of results in patent US7361680B2, “Indole compounds useful for the treatment of cancer” (The Regents of the University of California, priority 1999, dated 2008).

Data set [1] deals with CLL cells. The experiment in a line: MTT cytotoxicity assay, CLL cells. The class given is cell-based. To be noted: Homo sapiens, CLL cell, 72 hours, duplicate. The procedure: The compounds of the invention were screened for CLL apoptotic activity by flow cytometry and a MTT-based assay. […] Primary PBL cells were acquired from the San Diego Blood Bank, San Diego, Calif. DiOC6 and PI dyes were obtained from Molecular Probes, Eugene, Oreg. Otherwise, unless indicated, all other reagents were purchased from Sigma (St. Louis, Mo.), and all test compounds were dissolved in sterile DMSO.
To get a more concise measure of the EC50 and confirm the flow cytometry results, a MTT (3-(4,5-dimethylthiazol-2-yl)-2,5-diphenyl tertrazolium bromide) assay using a procedure similar to that described by Mosmann, T., J Immunol Methods. 1983, 65, 55-63, was performed on all analogs. This method provided a larger number of datapoints so that a value for the EC50 could be extrapolated.
This assay was based on a procedure described by Mosmann. Briefly, in each well of a 96-well plate, 5×10^5 CLL cells were suspended in 100 μL of […] medium containing 10% FBS, 100 μg/mL penicillin, and 100 μg/mL streptomycin. Serial dilution of test compounds were then performed in duplicate across the plate to establish a concentration gradient from 0 to 1000 μM. After 72 hours of incubation at 37° C., the cells were incubated for 6 more hours in the presence of 20 μL of 5 mg/mL MTT (3-(4,5-dimethylthiazol-2-yl)-2,5-diphenyl tertrazolium bromide) before dissolving the resulting crystals in 50 μL lysis buffer (15% SDS, 15 mM HCl) overnight. Afterwards, the absorbance of each well was measured at […] in a Finstrument Microplate Reader, and the data was analyzed by Graphpad Prism Software, version 2.0b.
(Formazan colour is commonly taken as a measure of viable cells.)

The target of data set [2] is T1, COX-1 isolated from human platelets (Homo sapiens, UniProt P23219).
T1 construct: COX-1 isolated from human platelets; tissue MDS Pharma Services; host or cells: human platelets
T1 sequence (P23219 24-599): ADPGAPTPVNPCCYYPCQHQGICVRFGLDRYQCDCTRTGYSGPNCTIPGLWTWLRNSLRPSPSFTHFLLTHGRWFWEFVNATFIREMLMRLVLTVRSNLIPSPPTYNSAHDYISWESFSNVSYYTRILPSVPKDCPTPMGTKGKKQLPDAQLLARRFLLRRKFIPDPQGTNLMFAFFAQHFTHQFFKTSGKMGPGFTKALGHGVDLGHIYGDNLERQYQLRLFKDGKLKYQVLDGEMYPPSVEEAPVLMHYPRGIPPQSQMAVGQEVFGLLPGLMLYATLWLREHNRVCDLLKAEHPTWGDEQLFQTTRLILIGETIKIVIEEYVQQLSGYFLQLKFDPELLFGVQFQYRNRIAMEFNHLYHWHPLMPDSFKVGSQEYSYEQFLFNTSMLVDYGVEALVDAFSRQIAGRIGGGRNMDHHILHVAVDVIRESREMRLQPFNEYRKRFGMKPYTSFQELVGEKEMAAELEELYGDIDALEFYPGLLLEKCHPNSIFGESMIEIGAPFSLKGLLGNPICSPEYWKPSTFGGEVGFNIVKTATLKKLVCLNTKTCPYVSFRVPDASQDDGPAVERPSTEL
Description: COX-1 enzyme assay (PGE2 enzyme immunoassay). The data set is classed as biochemical. The following applies: duplicate. The procedure: (§1) Compounds active in both the flow cytometry and MTT experiments were then tested for COX inhibition at 50 μM in an enzyme assay using COX-1 isolated from human platelets and human recombinant COX-2 purified from insect cells (Spodoptera frugiperda), as described by Riendeau et. al., Br J Pharmacol. 1997, 121, 105-117; Riendeau et. al., Can J Physiol Pharmacol. 1997, 75, 1088-1095; and Warner et. al. Proc Natl Acad Sci. 1999, 96, 7563-7568. These assays were performed by MDS Pharma Services, Bothell, Wash. The compounds were incubated in duplicate with COX-1 isolated from human platelets and human recombinant COX-2 purified from insect cells (Spodoptera frugiperda). Enzyme immunoassay quantification of prostaglandin E2 production from arachidonic acid in the presence (50 μM) and absence of test compounds was used to determine the percentage of COX inhibition.

The target in a further data set is T2, human recombinant COX-2 (Homo sapiens, UniProt P35354).
T2 construct: MDS Pharma Services (performed the assay); host or cells: Spodoptera frugiperda insect cells
T2 sequence (P35354 18-604): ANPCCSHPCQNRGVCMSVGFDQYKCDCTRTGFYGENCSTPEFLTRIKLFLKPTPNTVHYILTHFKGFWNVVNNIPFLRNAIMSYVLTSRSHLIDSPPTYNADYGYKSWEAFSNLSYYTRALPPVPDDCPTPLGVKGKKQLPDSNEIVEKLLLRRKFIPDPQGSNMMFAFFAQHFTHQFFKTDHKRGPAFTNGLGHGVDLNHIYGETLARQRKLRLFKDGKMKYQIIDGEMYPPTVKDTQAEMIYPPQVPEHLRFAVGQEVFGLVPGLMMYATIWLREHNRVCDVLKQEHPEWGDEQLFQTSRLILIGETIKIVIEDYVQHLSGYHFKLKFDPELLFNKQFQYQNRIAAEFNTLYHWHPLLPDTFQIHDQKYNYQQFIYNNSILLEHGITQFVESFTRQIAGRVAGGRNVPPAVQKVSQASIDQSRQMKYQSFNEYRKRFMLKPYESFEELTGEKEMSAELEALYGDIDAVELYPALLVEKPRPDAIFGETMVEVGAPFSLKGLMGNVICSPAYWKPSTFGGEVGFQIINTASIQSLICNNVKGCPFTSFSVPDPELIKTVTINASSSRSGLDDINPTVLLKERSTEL
The experiment in a line: COX-2 enzyme assay (PGE2 enzyme immunoassay). The class given is biochemical. The following applies: duplicate. As to the method:
as §1

The nature of a further data set: in vitro. The following applies: human, primary normal peripheral blood lymphocyte (PBL) cells.
For another data set, the system named is Mcl-1. The experiment in a line: Mcl-1 level in LNCaP cells, SDS-PAGE immunoblot. To be noted: for effect on the etodolac-induced fall in Mcl-1 levels: co-incubation with 5.0 μM MG-132 or pre-incubation with Z-VAD, LNCaP. The data set is classed as cell-based.
A further data set relates to Bag-1. Description: Bag-1 level in LNCaP cells, SDS-PAGE immunoblot. The class given is cell-based. To be noted: co-incubation with 5.0 μM MG-132 or pre-incubation with Z-VAD. (In western blotting, separated proteins are transferred to a membrane and probed.)
Another data set has as its system prostate cancer. The following applies: TRAMP mouse; cited from earlier work.
The subject of another data set is PC-3 (Prostate). The experiment in a line: Cytotoxicity by MTT assay, PC-3. The data set is classed as cell-based. The following applies: three days continuous exposure.
Another data set relates to LNCaP-FGC (Prostate). The experiment in a line: Cytotoxicity by MTT assay, LNCaP-FGC. The data set is classed as cell-based. To be noted: three days continuous exposure.
The subject of a further data set is Alva-31 (Prostate). The experiment in a line: Cytotoxicity by MTT assay, Alva-31. The data set is classed as cell-based. To be noted: three days continuous exposure.
Another data set concerns OVCAR-3 (Ovarian). The experiment in a line: Cytotoxicity by MTT assay, OVCAR-3. The data set is classed as cell-based. The following applies: three days continuous exposure.
Another data set has as its system MDA-MB-231 (Breast). The experiment in a line: Cytotoxicity by MTT assay, MDA-MB-231. The class given is cell-based. To be noted: three days continuous exposure.
The test system of the next data set is HCT-116 (Colon). Description: Cytotoxicity by MTT assay, HCT-116. The following applies: three days continuous exposure. The class given is cell-based.
Another data set deals with A549 (Lung). Description: Cytotoxicity by MTT assay, A549. The data set is classed as cell-based. The following applies: three days continuous exposure.
Another data set has as its system prostate cancer tissue. The experiment in a line: Prostatectomy tissue samples incubated 72 hours, histology. The data set is classed as cell-based. The source says:
The tissues were next fixed in 4% paraformaldehyde in PBS, embedded in paraffin, sectioned and stained with hematoxylin and eosin.

A further data set deals with adjuvant polyarthritis. The following applies: reduction in paw volume, prostaglandin synthetase inhibitory activity; cited from earlier work.
For data set [3] the following is noted: 200 mg dose, six elderly patients; cited from earlier work.
Data set [4] deals with CLL cells. Description: Viability of CLL cells, erythrocin B exclusion assay.
The next data set has as its system B-cell CLL cells. The following applies: cited from earlier work.

Residues, ends and D or L forms follow the SMILES beside them. *: point of attachment. Cbz = O=C(OCc1ccccc1)*; CH2F = FC* A value given as a limit tells only on which side of the number the result lay.

A word on the EC50: it is the concentration that produces a half-maximal response. Low readings indicate an effect from little substance, high ones a need for much substance. As a reminder, the inhibition is the drop in the measured response relative to a control, in per cent. What is called CC50 is the concentration at which the toxic effect on the cells reaches its halfway point. `CCc1cccc2c3c([nH]c12)C(CC)(CCO)OCC3` (stereo not shown) [Compound 1, 2-(1,8-Diethyl-1,3,4,9-tetrahydropyrano[3,4-b]indol-1-yl)-ethanol]: the EC50 in the data set with CLL cells [1] came out at 178 µM. In addition, the inhibition at 50 µM (in data set [2]; on human recombinant COX-2) was 0% throughout. Also, the CC50 at 48 h in the data set “in vitro” was around 500 µM.

Turning to `CCc1cccc2c3c([nH]c12)C(CC)(CCOC)OCC3` (stereo not shown) [Compound 2, 1,8-Diethyl-1-(2-methoxyethyl)-1,3,4,9-tetrahydropyrano[3,4-b]indole], the EC50 in the data set on CLL cells [1] was above 1000 µM. In the data set “in vitro”, this compound came in with a CC50 at 48 h above 750 µM.

In the data set on CLL cells [1], `CCc1cccc2c3c([nH]c12)C(CC)(CCF)OCC3` (stereo not shown) [Compound 3, 1,8-Diethyl-1-(2-fluoroethyl)-1,3,4,9-tetrahydropyrano[3,4-b]indole] gave an EC50 of 767 µM. Moreover, the CC50 at 48 h in “in vitro” was below 100 µM.

Compound `CCc1cccc2c3c([nH]c12)C(CC)(CCCl)OCC3` (stereo not shown) [Compound 4, 1-(2-Chloroethyl)-1,8-diethyl-1,3,4,9-tetrahydropyrano[3,4-b]indole] had an EC50 in the data set on CLL cells [1] of 572 µM. In “in vitro”, this compound registered a CC50 at 48 h below 100 µM.

What is called melting point is the temperature of the solid-liquid transition. As to `CCc1cccc2c3c([nH]c12)C(CC)(CC)OCC3` [Compound 5, 1,1,8-Triethyl-1,3,4,9-tetrahydropyrano[3,4-b]indole], the melting point is 133 to 134 °C. In the data set with CLL cells [1], the EC50 was above 1000 µM.

In turn, `CCc1cccc2c3c([nH]c12)C(CC)(CC(N)=O)OCC3` (stereo not shown) [Compound 6, 2-(1,8-Diethyl-1,3,4,9-tetrahydropyrano[3,4-b]indol-1-yl)-acetamide] had an EC50 with CLL cells [1] of 258 µM. Also, the figures for the inhibition at 50 µM (in [2]; at human recombinant COX-2) were 36% and 69%, respectively. Also, the CC50 at 48 h in the data set “in vitro” is above 500 µM.

Regarding `CCc1cccc2c3c([nH]c12)C(CC)(CC=N)OCC3` (stereo not shown) [Compound 7, 2-(1,8-Diethyl-1,3,4,9-tetrahydropyrano[3,4-b]indol-yl)-ethylideneamine], the EC50 with CLL cells [1] is 714 µM. In addition, the CC50 at 48 h in the data set “in vitro” was in the range of 250 to 500 µM.

As to `CCc1cccc2c3c([nH]c12)C(CC)(CC=O)OCC3` (stereo not shown) [Compound 8, (1,8-Diethyl-1,3,4,9-tetrahydropyrano[3,4-b]indol-1-yl)-acetaldehyde], a half-maximal effect in the data set on CLL cells [1] (EC50) was put at 111 µM. Moreover, the CC50 at 48 h in the data set “in vitro” was below 100 µM.

Regarding `CCc1cccc2c3c([nH]c12)C(CC)(CCOCSC)OCC3` (stereo not shown) [Compound 9, 1,8-Diethyl-1-(2-methylsufanylmethoxyethyl)-1,3,4,9-tetrahydropyrano[3,4-b]indole], in the data set on CLL cells [1], the EC50 came to 324 µM.

For `CCc1cccc2c3c([nH]c12)C(CC)(CCOC(C)=O)OCC3` (stereo not shown) [Compound 10, Acetic acid-2-(1,8-diethyl-1,3,4,9-tetrahydropyrano[3,4-b]indol-1-yl)-ethyl ester], it took 686 µM to reach a half-maximal effect in the data set with CLL cells [1] (EC50). In addition, the CC50 at 48 h in the data set “in vitro” lay in the range of 100 to 250 µM.

As for `CCc1cccc2c3c([nH]c12)C(CC)(CC(O)O)OCC3` (stereo not shown) [Compound 11, 2-(1,8-Diethyl-1,3,4,9-tetrahydropyrano[3,4-b]indol-1-yl)-ethane-1,1-diol], the melting point lay in the range of 158 to 159 °C. In the data set with CLL cells [1], the EC50 amounted to 416 µM.

For `CCc1cccc2c3c([nH]c12)C(CC)(CC(C)O)OCC3` (stereo not shown) [Compound 12, 1-(1,8-Diethyl-1,3,4,9-tetrahydropyrano[3,4-b]indol-1-yl)-propan-2-ol], the EC50 in the data set with CLL cells [1] is 272 µM. The CC50 at 48 h in “in vitro” is 250 to 500 µM.

Turning to `CCc1cccc2c3c([nH]c12)C(CC)(CC(C)=O)OCC3` (stereo not shown) [Compound 13, 1-(1,8-Diethyl-1,3,4,9-tetrahydropyrano[3,4-b]indol-1-yl)-propan-2-one], in the data set with CLL cells [1], the EC50 was above 1000 µM. Moreover, in the data set “in vitro”, the CC50 at 48 h is above 750 µM.

Consider `CC(C)C[C@@H](C=O)NC(=O)[C@H](CC(C)C)NC(=O)[C@H](CC(C)C)NC(=O)OCc1ccccc1` [MG-132] (Cbz-Leu-Leu-Leu-aldehyde), for which the “effect on the etodolac-induced fall in Mcl-1 levels” value with Mcl-1 is reported as “prevented”. Besides, the “effect on the etodolac-induced fall in Bag-1 levels” value in the data set on Bag-1 is recorded as “prevented”.

In the case of `C[C@@H](C(=O)O)c1ccc(-c2ccccc2)c(F)c1` [R-flurbiprofen], the “progression of prostate cancer” value in the data set on prostate cancer is “inhibited progression of prostate cancer”.

As a reminder, the IC50 is the point on the concentration scale where inhibition reaches its midpoint. Low readings indicate higher potency, high ones lower potency. As for `CCc1cccc2c3c([nH]c12)[C@](CC)(CC(=O)O)OCC3` [S-etodolac], the IC50 was 800 µM in the data set on PC-3 (Prostate); 220 ± 20 µM in the data set with LNCaP-FGC (Prostate); above 1000 µM with Alva-31 (Prostate); above 1000 µM in the data set with OVCAR-3 (Ovarian); above 1000 µM with MDA-MB-231 (Breast); 420 ± 50 µM with HCT-116 (Colon). Further, in the data set with A549 (Lung), the IC50 is above 1000 µM. Moreover, the “Mcl-1 degradation by the enantiomers” value in the data set with Mcl-1 is “induced Mcl-1 degradation at equivalent concentrations”. For the same compound, in the data set with prostate cancer tissue, the “activity in prostatectomy samples” value is given as “active”. Also, the anti-inflammatory activity result in the data set on adjuvant polyarthritis is recorded as “almost all of the anti-inflammatory activity of the racemate”. Further, in [3], the “maximum concentration relative to the R-enantiomer” value is given as 5 fold lower. Besides, the “toxicity of the enantiomers to CLL cells” value with CLL cells [4] (RPMI 1640 with 10% autologous plasma, FIG. 5) was “equivalently cytotoxic”.

Take `CC(NC(=O)C(NC(=O)OCc1ccccc1)C(C)C)C(=O)NC(CC(=O)O)C(=O)CF` (stereo not drawn) [Z-VAD] (Cbz-Val-Ala-Asp-CH2F; configuration not given here): in the data set on Mcl-1, the “effect on the etodolac-induced fall in Mcl-1 levels” value is “did not prevent”. The “effect on the etodolac-induced fall in Bag-1 levels” value with Bag-1 is given as “did not prevent”.

Consider `CC(=O)Oc1ccccc1C(=O)O` [aspirin], for which the “viability of B-cell CLL cells in vitro” value in the data set with B-cell CLL cells is recorded as “reduced the viability”.

Consider `Nc1nc(F)nc2c1ncn2[C@@H]1O[C@H](CO)[C@@H](O)[C@@H]1O` [fludarabine], for which the “cytotoxic effect on CLL cells, either drug alone” value in the data set on CLL cells [4] (fludarabine 10 nM or etodolac 10 μM alone, 48 hours, FIG. 3) is recorded as “ineffective”.

Turning to `O=C(O)c1ccccc1O` [salicylate], the “viability of B-cell CLL cells in vitro” value in the data set with B-cell CLL cells is recorded as “reduced the viability”.
